The record followed here is patent publication US9808434B2, “Compound for treating cancer and diabetes” (CITY OF HOPE, priority 2011, dated 2017).

Data set [1] has as its system p38 MAPK, ERK1/2, JNK. The data set is described as follows: MAPK/ERK signaling in melanoma cells, Western blotting. It counts as cell-based. The note with it: 0-10 μM; 5 μM 0-24 h. As for the experimental part: Cell or tissue proteins were extracted with cell lysis buffer (Cell Signaling Technology) and protein concentration was determined using the DC Protein Assay kit (Bio-Rad, Hercules, Calif., USA). Equal amount of proteins (˜40 μg) were loaded onto 4-15% Criterion TGX gels (Bio-Rad, Hercules, Calif.), resolved by SDS-PAGE electrophoresis, and then transferred onto nitrocellulose membranes for immunoblotting. Membranes were blocked with 5% skimmed milk in Tris-buffered saline containing 0.05% Tween 20 before incubation overnight at 4° C. with desired primary antibodies. Immuno-reactive proteins were visualized by peroxidase-labeled secondary antibodies and ECL system (Western Lightning Chemiluminescence Reagent, Perkin-Elmer, Mass., USA). […] Band intensities were quantified using a densitometer (Quantity One, Bio-Rad, Hercules, Calif.).
To investigate whether COH-SR4 affected the MAPK/ERK signaling pathway in human melanoma, the phosphorylation levels of p38 MAPK (T^180/Y^182), ERK1/2 (T^202/Y^204), and pJNK (T^183/Y^185), in A101D, A2058, SK-Mel-5, SK-MEL-28 and B16-F0 melanoma cells were examined after COH-SR4 treatment at various doses (0-10 μM) (FIG. 76A) or at a dose of 5 μM at various time points (0-24 h) (FIG. 76B). Total proteins were isolated and analyzed by Western blotting.
On the technique in general: Immunoblotting shows a protein as a band on a membrane.

Data set [2] concerns PBT003. The data set is described as follows: Glioma ATP viability assay, PBT003. It counts as cell-based. Particulars: Table 1; 72 hours. The procedure:
Cells of each cell line (U251, U87, PBT-017, PBT018, PBT003 and PBT028) were treated with various concentrations (0˜100 μM) of COH-SR4 for 72 hours. Cell viabilities were determined by ATP viability assays. Data were represented as a ratio to vehicle (DMSO) control, and plotted as mean±SEM (n=12) obtained from 2˜3 experiments (FIG. 34A).
Cells of each cell line (U87, U251, PBT003 and PVT-017) were treated with various concentrations (0˜100 μM) of COH-SR4 for 72 hours. Cell viabilities were determined by ATP viability assays. Data were represented as a ratio to vehicle (DMSO) control, and plotted as mean±SEM (n=12) obtained from 2-3 experiments (FIG. 34B).

Data set [3] concerns HAVSMC. The data set is described as follows: Colony formation assay, HAVSMC. It is filed as cell-based, human. The note with it: for colony forming potential: vs untreated control. The procedure:
Cell survival was evaluated using a standard colony-forming assay. In total, 1×10^5 cells/mL were incubated with COH-SR4 (1.5 μM or 5 μM) or elesclomol (5 μM) for 24 h, and aliquots of 50 or 100 μL were added to 60 mm size petri dishes, containing 4 mL culture medium. After 7 or 10 days, adherent colonies were fixed, stained with 0.5% methylene blue for 30 min and colonies were counted using the Innotech Alpha Imager HP (91).

Data set [4] concerns Hs600T. Put plainly: Colony formation assay, Hs600T. Particulars: 10 μM, vs untreated control. It is filed as cell-based, human. As for the experimental part: Cell survival was evaluated using a standard colony-forming assay. […] After 7 or 10 days, adherent colonies were fixed, stained with 0.5% methylene blue for 30 min and colonies were counted using the Innotech Alpha Imager HP (91).

Data set [5] has as its system normal human aortic vascular smooth muscle cells (HAVSMC). Put plainly: MTT assay, HAVSMC. It counts as cell-based. The procedure:
(§1) Cell density measurements were performed using a hemocytometer to count reproductive cells resistant to staining with trypan blue. Approximately 20,000 cells were plated into each well of 96-well flat-bottomed micro-titer plates. After 12 h or 24 h incubation at 37° C., medium containing either COH-SR4 (ranging 0-200 μM) or elesclomol (ranging 0-20 μM) were added to the cells. After 24 h, 48 h or 96 h incubation, 20 μL of 5 mg/mL MTT were introduced to each well and incubated for 2 h. The plates were centrifuged and medium was decanted. Cells were subsequently dissolved in 100 μl DMSO with gentle shaking for 2 h at room temperature, followed by measurement of OD570 (91).
(Tetrazolium assays rely on reduction of a dye to a coloured formazan, in cell work by metabolically active cells.)

Data set [6] concerns AMPK. Put plainly: AMPK activation in human melanoma cell lines. It counts as cell-based. The note with it: regardless of BRAF, NRAS and LKB1 mutation. As for the experimental part: Cell or tissue proteins were extracted with cell lysis buffer (Cell Signaling Technology) and protein concentration was determined using the DC Protein Assay kit (Bio-Rad, Hercules, Calif., USA). Equal amount of proteins (˜40 μg) were loaded onto 4-15% Criterion TGX gels (Bio-Rad, Hercules, Calif.), resolved by SDS-PAGE electrophoresis, and then transferred onto nitrocellulose membranes for immunoblotting. Membranes were blocked with 5% skimmed milk in Tris-buffered saline containing 0.05% Tween 20 before incubation overnight at 4° C. with desired primary antibodies. Immuno-reactive proteins were visualized by peroxidase-labeled secondary antibodies and ECL system (Western Lightning Chemiluminescence Reagent, Perkin-Elmer, Mass., USA). Equal loading of proteins was confirmed by stripping and re-probing the membranes with either β-actin or GAPDH antibodies. Band intensities were quantified using a densitometer (Quantity One, Bio-Rad, Hercules, Calif.).
One of the consequences of mitochondria uncoupling is decrease intracellular ATP production, leading to increased AMP:ATP ratio and triggering activation of the energy-sensitive enzyme AMPK. It has been previously shown that COH-SR4 indirectly activates AMPK in a time- and dose-dependent manner in both HepG2 cells and 3T3-adipocytes. […] In melanomas, mutation rates for BRAF NRAS and LKB1 are 50-70%, 5-30%, and 10%, respectively. […]

Data set [7] has as its system H1417 cells. Put plainly: MTT assay, H1417. It counts as cell-based. Particulars: Homo sapiens, NCI-H1417, 48 h. As for the experimental part:
as §1
The effect of COH-SR4 was first examined in a NCI panel of cancer cell lines, the results of which indicated good activity of COH-SR4 towards lung cancer (FIG. 78A). […] Values are presented as mean±SD from two separate determinations with eight replicates each (n=16) (FIG. 78B). […] Standard colony-forming assay was performed and the colonies were counted using Innotech Alpha Imager HP. […] TUNEL assay was performed using Promega fluorescence detection kit and examined using Zeiss LSM 510 META laser-scanning fluorescence microscope with filters 520 and 620 nm. […]

With `O=C(Nc1cc(Cl)cc(Cl)c1)Nc1cc(Cl)cc(Cl)c1` [COH-SR4, 1,3-bis(3,5-dichlorophenyl) urea], in data set [1], the “phosphorylation of p38 MAPK and ERK1/2” value is “dose- and time dependent increase in the levels of phosphorylation of p38 MAPK (T^180/Y^182) and ERK1/2 (T^202/Y^204)”. The figures for the IC50 in data set [2] and in data set [7] were 1500 nM and 1200 ± 200 nM, respectively. For the same compound, the “colony formation in normal cells” value in data set [3] (1.5 μM) is given as “did not result in significant inhibition of colony formation”. The colony forming potential in data set [3] (Example 18, FIG. 65B) came out at 96±4%; in data set [3] (FIG. 67B, 5 μM) it was 95±4%. Besides, in data set [4], the colony formation is reported as 48±5%. The “cytotoxicity in normal cells” value in data set [5] (96 h) is listed as “did not cause any significant cytotoxicity”; in data set [5] (concentrations effective in lung cancer cell lines, 48 h), “did not exert any significant cytotoxicity”. For the same compound, the “activation of AMPK” value in data set [6] is “dose- and time-dependent activation of AMPK”.
